In US20050034187A1, “Modified tet-inducible system for regulation of gene expression in plants” (priority 2000, published 2005):
“Also recorded” adds a separate entry of the source.

How the values were obtained:
[1] = test system: wild type tet Receptor and TripleX-driven GUS gene (pAC489/pAC499 double transformants); assay: Seed germination test: induction of GUS gene in seedlings; assay type: in vivo, tobacco; conditions: for inducing activity (GUS reporter gene): seed germination test, FIG. 18
[2] = test system: wild type tet Receptor and GUS gene controlled by TripleX promoter (pAC489/pAC499 double transformants); assay: Induction of the tet system in protoplast assays (GUS fluorescent assay); assay type: cell-based, tobacco; conditions: for magnitude of derepression (induction of GUS): protoplasts, seventh day of cultivation, FIG. 17
Protocol: Logarithmic scale is used for concentration axis.
Protoplasts were cultivated in the dark at 26° C. […] 100 μl of supernatant was used for the assay.

[3] = test system: tetracycline-sensitive bacteria; conditions: concentrations of 0.3 mg/l and lower; according to supplier; cited from earlier work
Mesophyll protoplasts = assay: Toxicity of chemicals to protoplasts (division rate); conditions: FIG. 17
Protocol: Mesophyll protoplasts were isolated from T2 transgenic tobacco carrying both wild type tet Receptor and GUS gene controlled by TripleX promoter (pAC489/pAC499 double transformants) and were cultivated at a concentration of 5×10^4 cells/ml in liquid KM medium supplemented with tet analogs at 2-5 mg/l in the dark at 26° C. Total and divided protoplasts were counted and GUS fluorescent assays were performed on the seventh day of cultivation. Toxicity of chemicals was evaluated by division rate—the number of divisions divided by the total number of viable cells and multiplied by 100. Each point on the graphs represents an average of three samples.
Protoplasts were cultivated in the dark at 26° C. First divisions were usually observed after 36-60 hours of cultivation; second and sometimes third divisions were visible beginning from the fifth day. Total and divided protoplasts were counted and GUS fluorescent assays performed on the seventh day. In all experiments protoplasts were counted in a fixed volume of 2 mm^3 using hemocytometer (Hausser Scientific Partnership). Toxicity of chemicals was evaluated by division rate—the number of divisions divided by the total number of viable cells and multiplied by 100. […] 100 μl of supernatant was used for the assay. […]

tobacco seedlings = assay: Visual evaluation of seedlings for toxicity in seed germination test
Text: The purpose of this experiment was to determine the concentration curve for selected analogs. Seeds of homozygous tobacco carrying wild type tet Receptor and TripleX-driven GUS gene (pAC489/pAC499 double transformants) were germinated in presence of several analogs at different concentrations. Seedlings were visually evaluated for toxicity, collected and assayed. Each point on the graph represents an average of three samples.
Seeds of T2 homozygous tobacco carrying wild type tet Receptor and TripleX-driven GUS gene were germinated in the presence of several new analogs at different concentrations. Seedlings were visually evaluated for toxicity, collected and assayed.
The next step in evaluating the analogs was to determine their respective concentration curve. Seeds of homozygous tobacco carrying wild type tet Receptor and TripleX-driven GUS gene (pAC489/pAC499 double transformants) were germinated in the presence of several analogs at different concentrations. Seedlings were visually evaluated for toxicity, collected and assayed.

lac repressor = lac repressor (Escherichia coli, UniProt P03023); conditions: Barkley and Bourgeois, 1980; cited from earlier work
Chain of lac repressor (P03023 whole entry): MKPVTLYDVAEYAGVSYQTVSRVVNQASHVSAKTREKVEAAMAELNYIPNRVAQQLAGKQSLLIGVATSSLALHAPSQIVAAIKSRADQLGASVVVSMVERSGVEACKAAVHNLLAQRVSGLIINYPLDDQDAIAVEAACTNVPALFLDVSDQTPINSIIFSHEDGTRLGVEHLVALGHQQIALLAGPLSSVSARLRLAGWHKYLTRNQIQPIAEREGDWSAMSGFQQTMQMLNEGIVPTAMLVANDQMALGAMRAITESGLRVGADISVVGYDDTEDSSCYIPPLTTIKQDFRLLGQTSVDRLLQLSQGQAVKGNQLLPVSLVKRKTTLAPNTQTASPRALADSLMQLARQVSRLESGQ

cells = conditions: cited from earlier work
[4] = test system: pAC499 (TripleX/GUS) with pACAG084 ((OCS)3MAS/nTR) or pACAG049 (MAR-(OCS)3MAS/nTR); assay: Time series of GUS induction in whole rooted plants; assay type: in vivo, tobacco; conditions: roots, tetracycline 2 mg/l, FIG. 16
Protocol: FIG. 16—Induction of GUS Gene in Double Transformants: Time Series. Time series were run with the best double transformants carrying pAC499 (TripleX/GUS) and either of pACAG084 ((OCS)3MAS/nTR) or pACAG049 (MAR-(OCS)3MAS/nTR). Three weeks-old rooted plants were transferred from agar to magenta boxes with liquid medium and tetracycline 2 mg/l. Tissue samples were regularly taken from roots and assayed for GUS.
Time series were run with the best double transformants carrying pAC499 (TripleX/GUS) and either of pACAG084 ((OCS)3MAS/nTR) or pACAG049 (MAR-(OCS)3MAS/nTR). Three week-old rooted plants were transferred from agar to magenta boxes with liquid medium and tetracycline 2 mg/l. Tissue samples were regularly taken from leaves and roots and assayed for GUS. […] The latter result was consistently observed, as well as, in experiments from the literature.

SMILES: Cc1c2c(c(O)c3c(O)cccc13)C(=O)[C@]1(O)C(=O)C(C(N)=O)=C(O)[C@@H](N(C)C)[C@@H]1C2 [1665-56-1, anhydrotetracycline]
- inducing activity (GUS reporter gene) [1]: negligible induction
- magnitude of derepression (induction of GUS) [2]: not a good derepressing agent; also recorded: able to induce the system

SMILES: CN(C)C1C(=O)C(C(N)=O)=C(O)C2(O)C(=O)C3=C(O)c4c(O)cccc4CC3CC12 (centres unmarked) [95702-03-7, 6-deoxy-6-demethyl tetracycline]
- toxicity to tetracycline-sensitive bacteria [3]: not toxic to tetracycline-sensitive bacteria
- inducing activity (GUS reporter gene) [1]: higher than that of the industry standard, doxycycline
- induction of the GUS reporter gene ([1]; summary of in vitro tests of several tetracycline analogs): very good induction
- toxicity to plant cells (Mesophyll protoplasts): the same magnitude of derepression and toxicity as tetracycline
- toxicity compared with other inducers (tobacco seedlings; concentration curve experiment, FIG. 19): lower toxicity than doxycycline and tetracycline
- inducer potency compared with tetracycline ([2]; concentrations of 0.3 mg/l and lower): more potent inducer at concentrations of 0.3 mg/l and lower
- magnitude of derepression (induction of GUS) [2]: the same magnitude of derepression and toxicity as tetracycline

SMILES: CN(C)C1C(=O)C(C(N)=O)=C(O)C2(O)C(=O)C3=C(O)c4c(O)ccc(Br)c4CC3CC12 (centres unmarked) [101057-85-6, 7-bromo-6-deoxy-6-demethyl tetracycline]
- inducing activity (GUS reporter gene) [1]: moderate inducer

SMILES: CC(C)S[C@@H]1O[C@H](CO)[C@H](O)[C@H](O)[C@H]1O [IPTG, isopropyl-B-D-thiogalactopyranoside]
- reduction of the affinity of repressor for the operator (lac repressor): 300 fold
- toxicity of the level required to induce a lac repressor system (cells): cytotoxic to cells

SMILES: CN(C)[C@@H]1C(O)=C(C(N)=O)C(=O)[C@@]2(O)C(O)=C3C(=O)c4c(O)cccc4[C@@](C)(O)[C@H]3C[C@@H]12 [tetracycline]
- toxicity evaluation (growth of plantlets) (tobacco seedlings; concentration of 10 mg/l, FIG. 19 experiment): slightly stunted growth of plantlets
- magnitude of induction at maximum [4]: 3.5 fold
